Molecular target: T1, human mGlu5 recombinant receptor (Homo sapiens, UniProt P41594)
T1 construct: expressed in transfected cells; host or cells: inducible CHO cell line stably expressing Aequorin (Euroscreen FAST); doxycycline-responsive promoter
Assay: mGluR5 calcium mobilization in inducible mGluR5 CHO cells (aequorin luminescence, antagonist mode)
Type: cell-based
Conditions: Table 2; antagonist activity against EC80 glutamate, inducible CHO cell line expressing human mGlu5 and Aequorin; read-out: IC50 (uM) Ca^++ flux
Source text: mGluR5 Calcium Mobilization in Inducible mGluR5 CHO Cells
To functionally measure mGluR5 calcium mobilization in response to agonists or antagonists, an inducible CHO cell line expressing the human mGlu5 recombinant receptor was used. This cell line also stably expressed Aequorin (Euroscreen FAST), a photoprotein that spontaneously couples with coelenterazine h when added exogenously in the cell media. The Aequorin-coelenterzine h complex undergoes a conformational change upon binding of calcium ions which results in the emission of blue light (wavelength 469 nm) that was measured using a Hamamatsu Functional Drug Screening System 6000.
mGluR5 expression was induced by a doxycycline responsive promoter by growing cells to mid-log phase for 18 hours in media without antibiotics and supplemented with doxycycline (600 ng/mL). Cells were detached from the plate by gentle flushing using PBS-EDTA (5 mM EDTA) and centrifuged for collection and resuspended in “assay buffer” (HBSS, 2.1 mM CaCl2, 2 ug/mL glutamate-pyruvate transaminase, 4 mM MEM sodium pyruvate, and 0.1% protease free BSA). Cells were incubated with coelenterazine h (Molecular Probes) at room temperature for 4 hours before testing.
To measure mGluR5 antagonist activity, cell suspensions containing test compound were mixed with EC80 glutamate and emission of light was recorded. Reference and test compounds were tested at several concentrations in duplicate to obtain dose response curves using the Prism GraphPad software (GraphPad Software Inc.). IC50 values were calculated from the dose response curves using the equation:
Y=Bottom+(Top−Bottom)/(1+10̂((LogEC50−X)*HillSlope)).

T1 sequence (P41594 21-1212): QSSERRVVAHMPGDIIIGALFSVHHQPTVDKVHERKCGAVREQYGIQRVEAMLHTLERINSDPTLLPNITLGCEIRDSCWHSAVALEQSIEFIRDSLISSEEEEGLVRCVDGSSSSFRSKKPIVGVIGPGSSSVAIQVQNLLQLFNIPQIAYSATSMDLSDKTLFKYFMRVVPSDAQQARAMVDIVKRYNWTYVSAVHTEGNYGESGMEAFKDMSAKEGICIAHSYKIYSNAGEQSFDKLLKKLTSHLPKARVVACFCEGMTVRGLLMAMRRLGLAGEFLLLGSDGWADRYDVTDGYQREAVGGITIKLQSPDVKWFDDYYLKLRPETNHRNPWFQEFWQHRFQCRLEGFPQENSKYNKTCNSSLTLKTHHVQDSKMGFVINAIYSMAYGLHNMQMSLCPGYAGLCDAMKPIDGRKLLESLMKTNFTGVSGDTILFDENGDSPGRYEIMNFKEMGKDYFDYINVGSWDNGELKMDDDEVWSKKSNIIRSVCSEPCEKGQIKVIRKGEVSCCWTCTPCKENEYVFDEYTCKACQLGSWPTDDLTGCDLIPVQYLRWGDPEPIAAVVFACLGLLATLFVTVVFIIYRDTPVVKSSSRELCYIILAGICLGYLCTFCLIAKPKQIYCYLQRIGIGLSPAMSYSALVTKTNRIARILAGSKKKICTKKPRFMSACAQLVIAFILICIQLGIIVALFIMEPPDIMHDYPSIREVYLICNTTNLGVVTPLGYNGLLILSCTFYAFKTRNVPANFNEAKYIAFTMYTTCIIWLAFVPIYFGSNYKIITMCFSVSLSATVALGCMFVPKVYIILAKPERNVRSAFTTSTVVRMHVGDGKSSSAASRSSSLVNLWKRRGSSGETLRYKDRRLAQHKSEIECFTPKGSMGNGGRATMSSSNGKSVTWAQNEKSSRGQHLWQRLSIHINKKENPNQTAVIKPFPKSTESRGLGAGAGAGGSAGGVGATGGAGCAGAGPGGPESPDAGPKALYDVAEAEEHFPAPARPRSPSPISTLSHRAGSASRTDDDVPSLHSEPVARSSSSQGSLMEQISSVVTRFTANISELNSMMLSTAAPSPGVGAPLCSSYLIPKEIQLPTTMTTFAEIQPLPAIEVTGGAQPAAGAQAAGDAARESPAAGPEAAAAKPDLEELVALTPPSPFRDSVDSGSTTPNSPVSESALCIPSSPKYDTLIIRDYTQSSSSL

SMILES	IC50
Cn1nc(C(=O)Nc2cccc(Cl)c2)c2c1-c1cc(F)ccc1OC2 [Example 1, N-(3-Chlorophenyl)-8-fluoro-1-methyl-1,4-dihydrochromeno[4,3-c]pyrazole-3-carboxamide]	< 1 µM
Cn1nc2c(c1C(=O)Nc1cccc(Cl)c1)COc1ccc(F)cc1-2 [Example 2, N-(3-Chlorophenyl)-8-fluoro-2-methyl-2,4-dihydrochromeno[4,3-c]pyrazole-3-carboxamide]	< 1 µM
Cn1nc(C(=O)Nc2cc(Cl)ccn2)c2c1-c1ccccc1OC2 [Example 3, N-(4-Chloropyridin-2-yl)-1-methyl-1,4-dihydrochromeno[4,3-c]pyrazole-3-carboxamide]	1 to 10 µM
Cn1nc(C(=O)Nc2cccc(Cl)c2)c2c1-c1ccccc1OC2(C)C [Example 4, N-(3-Chlorophenyl)-1,4,4-trimethyl-1,4-dihydrochromeno[4,3-c]pyrazole-3-carboxamide]	> 10 µM
Cn1nc(C(=O)Nc2cccc(Cl)c2)c2c1-c1cc(Cl)ccc1OC2 [Example 5, N-(3-Chlorophenyl)-8-chloro-1-methyl-1,4-dihydrochromeno[4,3-c]pyrazole-3-carboxamide]	> 10 µM
Cc1cccc(NC(=O)c2nn(C)c3c2COc2cc(F)ccc2-3)n1 [Example 6, 7-Fluoro-1-methyl-N-(6-methylpyridin-2-yl)-1,4-dihydrochromeno[4,3-c]pyrazole-3-carboxamide]	> 10 µM
Cc1cccc(NC(=O)c2n[nH]c3c2COc2ccccc2-3)n1 [Example 7, N-(6-Methylpyridin-2-yl)-1,4-dihydrochromeno[4,3-c]pyrazole-3-carboxamide]	> 10 µM
Cn1nc(C(=O)Nc2cc(C#N)ccn2)c2c1-c1ccccc1OC2 [Example 8, N-(4-Cyanopyridin-2-yl)-1-methyl-1,4-dihydrochromeno[4,3-c]pyrazole-3-carboxamide]	> 10 µM
Cn1nc(C(=O)Nc2ccc3c(c2)OCCO3)c2c1-c1ccccc1OC2 [Example 9, N-(2,3-Dihydrobenzo[b][1,4]dioxin-6-yl)-1-methyl-1,4-dihydrochromeno[4,3-c]pyrazole-3-carboxamide]	> 10 µM
Cn1nc(C(=O)N2CCOc3ccccc32)c2c1-c1ccccc1OC2 [Example 10, (2H-Benzo[b][1,4]oxazin-4(3H)-yl)(1-methyl-1,4-dihydrochromeno[4,3-c]pyrazol-3-yl)methanone]	> 10 µM
CCN(Cc1nn(C)c2c1COc1ccccc1-2)C(=O)c1ccc(Br)o1 [Example 11, 5-Bromo-N-ethyl-N-((1-methyl-1,4-dihydrochromeno[4,3-c]pyrazol-3-yl)methyl)furan-2-carboxamide]	> 10 µM
Cn1nc(CNc2cccc(Cl)c2)c2c1-c1ccccc1OC2 [Example 12]	1 to 10 µM
Cc1cccc(NC(=O)c2nn(C)c3c2CCc2cccnc2-3)n1 [Example 13, 1-Methyl-N-(6-methylpyridin-2-yl)-4,5-dihydro-1H-pyrazolo[4,3-h]quinoline-3-carboxamide]	< 1 µM
Cn1nc(C(=O)Nc2cccc(Cl)c2)c2c1-c1ccccc1CC2 [Example 14, N-(3-Chlorophenyl)-1-methyl-4,5-dihydro-1H-benzo[g]indazole-3-carboxamide]	< 1 µM
Cc1cccc(NC(=O)c2nn(C(C)C)c3c2CCc2cccnc2-3)n1 [Example 15]	> 10 µM
CCn1nc(C(=O)Nc2cccc(C)n2)c2c1-c1ncccc1CC2 [Example 16, 1-Ethyl-N-(6-methylpyridin-2-yl)-4,5-dihydro-1H-pyrazolo[4,3-h]quinoline-3-carboxamide]	< 1 µM
Cc1cccc(NC(=O)c2nn(C)c3c2CCc2ccncc2-3)n1 [Example 17, 1-Methyl-N-(6-methylpyridin-2-yl)-4,5-dihydro-1H-pyrazolo[4,3-h]isoquinoline-3-carboxamide]	< 1 µM
Cc1cccc(NC(=O)c2nn(C)c3c2CCc2ccc(C)nc2-3)n1 [Example 18]	< 1 µM
CC(=O)N1Cc2c(C(=O)Nc3cccc(Cl)c3)nn(C)c2-c2ccccc21 [Example 19]	< 1 µM

Second part, the compound after the results:

IC50	SMILES
< 1 µM	Cn1nc(C(=O)Nc2cccc(Cl)c2)c2cnc3ccccc3c21 [Example 20, N-(3-Chlorophenyl)-1-methyl-1H-pyrazolo[4,3-c]quinoline-3-carboxamide]
< 1 µM	Cn1nc(C(=O)Nc2cccc(Cl)c2)c2c1-c1ccccc1NC2 [Example 21, N-(3-Chlorophenyl)-1-methyl-4,5-dihydro-1H-pyrazolo[4,3-c]quinoline-3-carboxamide]
< 1 µM	Cc1cccc(NC(=O)c2nn(C)c3c2CCCc2cccnc2-3)n1 [Example 22, 3-Methyl-N-(6-methylpyridin-2-yl)-3,4,14-triazatricyclo[8.4.0.0̂{2,6}]tetradeca-1(14),2(6),4,10,12-pentaene-5-carboxamide]
> 10 µM	Cc1cccc(NC(=O)c2c3c(nn2C)-c2ncccc2CCC3)n1 [Example 23, 4-Methyl-N-(6-methylpyridin-2-yl)-3,4,14-triazatricyclo[8.4.0.0̂{2,6}]tetradeca-1(14),2,5,10,12-pentaene-5-carboxamide]
> 10 µM	Cn1nc2c(c1C1CCCN(C(=O)c3ccc(F)cc3)C1)CCc1ccccc1-2 (centres unmarked) [Example 24, (4-Fluorophenyl)(3-(2-methyl-4,5-dihydro-2H-benzo[g]indazol-3-yl)piperidin-1-yl)methanone]
> 10 µM	Cn1nc(C2CCCN(C(=O)c3ccc(F)cc3)C2)c2c1-c1ccccc1CC2 (centres unmarked) [Example 25, (4-Fluorophenyl)(3-(1-methyl-4,5-dihydro-1H-benzo[g]indazol-3-yl)piperidin-1-yl)methanone]

Same assay, conditions: Table 3; antagonist activity against EC80 glutamate, inducible CHO cell line expressing human mGlu5 and Aequorin; read-out: IC50 (uM) Ca^++ flux

IC50	SMILES
> 10 µM	Cn1nc(C(=O)Nc2cccc(C(F)(F)F)c2)c2c1-c1ccccc1OC2 [1-methyl-N-(3-(trifluoromethyl)phenyl)-1,4-dihydrochromeno[4,3-c]pyrazole-3-carboxamide]
1 to 10 µM	Cn1nc(C(=O)Nc2ccccc2Cl)c2c1-c1ccccc1OC2 [N-(2-chlorophenyl)-1-methyl-1,4-dihydrochromeno[4,3-c]pyrazole-3-carboxamide]
> 10 µM	Cn1nc(C(=O)Nc2ccc(F)c(Cl)c2)c2c1-c1ccccc1OC2 [N-(3-chloro-4-fluorophenyl)-1-methyl-1,4-dihydrochromeno[4,3-c]pyrazole-3-carboxamide]
> 10 µM	Cn1nc(C(=O)NCc2cccc(Cl)c2)c2c1-c1ccccc1OC2 [N-(3-chlorobenzyl)-1-methyl-1,4-dihydrochromeno[4,3-c]pyrazole-3-carboxamide]
< 1 µM	Cc1ccc2c(c1)-c1c(c(C(=O)Nc3cccc(Cl)c3)nn1C)CS2 [N-(3-chlorophenyl)-1,8-dimethyl-1,4-dihydrothiochromeno[4,3-c]pyrazole-3-carboxamide]
< 1 µM	Cn1nc(C(=O)Nc2cccc(Cl)c2)c2c1-c1ccccc1SC2 [N-(3-chlorophenyl)-1-methyl-1,4-dihydrothiochromeno[4,3-c]pyrazole-3-carboxamide]
> 10 µM	Cn1nc(C(=O)Nc2cccc(Cl)c2)c2c1-c1ccsc1CC2 [N-(3-chlorophenyl)-1-methyl-4,5-dihydro-1H-thieno[2,3-g]indazole-3-carboxamide]
< 1 µM	O=C(Nc1cccc(Cl)c1)c1noc2c1CSc1ccccc1-2 [N-(3-chlorophenyl)-4H-thiochromeno[3,4-d]isoxazole-3-carboxamide]
> 10 µM	CN(C(=O)c1nn(C)c2c1COc1ccccc1-2)c1cccc(Cl)c1 [N-(3-chlorophenyl)-N,1-dimethyl-1,4-dihydrochromeno[4,3-c]pyrazole-3-carboxamide]
> 10 µM	CN(C(=O)c1noc2c1COc1ccccc1-2)c1cccc(Cl)c1 [N-(3-chlorophenyl)-N-methyl-4H-chromeno[3,4-d]isoxazole-3-carboxamide]
> 10 µM	COc1cccc(NC(=O)c2n[nH]c3c2COc2ccccc2-3)c1 [N-(3-methoxyphenyl)-1,4-dihydrochromeno[4,3-c]pyrazole-3-carboxamide]
> 10 µM	COc1cccc(NC(=O)c2nn(C)c3c2COc2ccccc2-3)c1 [N-(3-methoxyphenyl)-1-methyl-1,4-dihydrochromeno[4,3-c]pyrazole-3-carboxamide]
> 10 µM	Cn1nc(C(=O)Nc2ccc(Cl)cc2)c2c1-c1ccccc1OC2 [N-(4-chlorophenyl)-1-methyl-1,4-dihydrochromeno[4,3-c]pyrazole-3-carboxamide]
> 10 µM	O=C(Nc1ccc(Cl)cc1)c1n[nH]c2c1CCc1ccccc1-2 [N-(4-chlorophenyl)-4,5-dihydro-1H-benzo[g]indazole-3-carboxamide]
> 10 µM	Cn1nc(C(=O)Nc2ccc(F)cc2)c2c1-c1ccccc1OC2 [N-(4-fluorophenyl)-1-methyl-1,4-dihydrochromeno[4,3-c]pyrazole-3-carboxamide]
> 10 µM	COc1ccc(NC(=O)c2n[nH]c3c2COc2ccccc2-3)cc1 [N-(4-methoxyphenyl)-1,4-dihydrochromeno[4,3-c]pyrazole-3-carboxamide]
